{"source": "patent US20240318141A1", "about": "“MATURATION AGENT” (Orizuru Therapeutics, Inc., priority 2021, published 2024)", "key": {"[1]": {"system": "insulin-producing cell population (QHJI-114s04 iPS cell line)", "conditions": "induction of differentiation using medium supplemented with FGF receptor 1 inhibitor; see WO2019/208505; cited from earlier work"}, "[2]": {"system": "non-endocrine cells in insulin-producing cell population (Ff-I14s04 iPS cell line)", "experiment": "Extended culture of insulin-producing cell population in basal medium containing EGF (Example 1)", "format": "cell-based, human", "text": "(§1) The differentiation of a Ff-I14s04 iPS cell line into an insulin-producing cell population was induced by the three-dimensional culture method using a bioreactor and a multiwell plate according to steps 1) to 6) described above and the previous report (Nature Biotechnology 2014; 32: 1121-1133). Specifically, the iPS cells were subjected to the first culture in a medium (DMEM/1% B-27 (INS+)/Penicillin Streptomycin/dimethyl sulfoxide) containing differentiation-inducing factors (GSK3β inhibitor, ROCK inhibitor and low dose of activin A) under conditions causing action of insulin, and subsequently subjected to the second culture in a medium (DMEM/1% B-27 (INS−)/Penicillin Streptomycin/dimethyl sulfoxide) containing a differentiation-inducing factor (low dose of activin A) under conditions causing no action of insulin to obtain a definitive endoderm cell population. Further, a pancreatic endocrine progenitor cell population obtained by the induction of differentiation from the definitive endoderm cell population was cultured in a medium (Improved MEM/1% B-27 (INS+)/Penicillin Streptomycin) containing differentiation-inducing factors (ALK5 inhibitor II, T3, LDN, γ-secretase inhibitor RO, and ascorbic acid) and FGF receptor 1 inhibitor (PD-166866) to obtain an insulin-producing cell population. The exchange from the bioreactor to the multiwell plate was carried out in step 6).\nThe insulin-producing cell population was subjected to extended culture for 4 weeks in a basal medium (MCDB131/20 mM Glucose/NaHCO3/FAF-BSA/ITS-X/Glutamax/Penicillin Streptomycin). EGF, when added for the purpose of promoting the proliferation of unintended cells, was added at 50 ng/ml (final concentration) to the basal medium for culture.\nMarker protein expression (PDX1 and CHGA) in the insulin-producing cell population before the start of and after the completion of extended culture was measured by flow cytometry. Respective samples were collected by sampling from separate culture containers. The number of cells was measured in an automatic cell counter at the time of sample preparation for flow cytometry, and the total number of cells per well of the multiwell plate was calculated. The number of CHGA-positive cells, the number of PDX1-positive and CHGA-negative cells, and the number of PDX1-negative and CHGA-negative cells were calculated from the obtained total number of cells and the flow cytometry results."}, "[3]": {"system": "non-endocrine cells in insulin-producing cell population (QHJI-I14s04 iPS cell line)", "experiment": "Cisplatin or docetaxel treatment in step 6), then extended culture in basal medium containing EGF (Example 2)", "format": "cell-based, human", "text": "as §1, with “QHJI-I14s04” for “Ff-I14s04”, “bioreactor” for “bioreactor and a multiwell plate”, “Y-secretase” for “γ-secretase”, “population.” for “population. The exchange from the bioreactor to the multiwell plate was carried out in step 6).”\nAn insulin-producing cell population obtained without the addition of cisplatin and docetaxel was used as a control cell population and subjected to extended culture in the same manner as above.\nMarker protein expression (PDX1, CHGA, and Ki67) in each insulin-producing cell population before the start of and after the completion of extended culture was measured by flow cytometry. Samples after the completion of extended culture were collected by sampling three times from the same culture container. The number of cells was measured in an automatic cell counter at the time of sample preparation for flow cytometry, and the total number of cells per mL of the bioreactor was calculated. The number of CHGA-positive cells, the number of PDX1-positive and CHGA-negative cells, and the number of PDX1-negative and CHGA-negative cells were calculated from the obtained total number of cells and the flow cytometry results."}, "[4]": {"conditions": "after extended culture 4 weeks, EGF present (50 ng/ml)"}, "[5]": {"conditions": "extended culture in basal medium containing EGF"}, "[6]": {"conditions": "after extended culture 4 weeks, EGF present, average of three samplings"}, "[7]": {"conditions": "after extended culture 4 weeks, EGF present, single samplings"}, "[8]": {"conditions": "after extended culture involving EGF, with respect to control cell population"}, "[9]": {"conditions": "s6d11 (before extended culture); 3 μM cisplatin or 1 μM docetaxel for 7 days from day 4 of step 6)"}}, "note": "“And” between values parts separate entries of the source, which are not always exact repeats. Identical values can stand only once."}
{"molecule": "COc1cc(OC)cc(-c2cc3cnc(N)nc3nc2NC(=O)NC(C)(C)C)c1", "note": "[PD-166866, 1-[2-amino-6-(3,5-dimethoxyphenyl)-pyrido(2,3-d)pyrimidin-7-yl]-3-tert-butylurea]", "values": [{"measurement": "abundance of CHGA-negative and Ki67-positive (CHGA−/Ki67+) cells (in words)", "setting": "[1]", "result": "drastically reduced"}]}
{"molecule": "EGF: epidermal growth factor added at 50 ng/ml to basal medium to promote proliferation of unintended cells", "values": [{"measurement": "The number of cells CHGA+", "setting": "[2]; [4]", "result": "128 ×10^4 cells/well and 123 ×10^4 cells/well"}, {"measurement": "The number of cells PDX+/CHGA−", "setting": "[2]; [4]", "result": "27 ×10^4 cells/well and 32 ×10^4 cells/well"}, {"measurement": "Total number of cells", "setting": "[2]; [4]", "result": "198 ×10^4 cells/well and 222 ×10^4 cells/well and 281 ×10^4 cells/well"}, {"measurement": "number of CHGA-positive endocrine cells (in words)", "setting": "[2]; [5]", "result": "no large change"}, {"measurement": "proportions of PDX1+/CHGA− and PDX1−/CHGA− non-endocrine cells", "setting": "[2]; [5]", "result": "markedly increased"}, {"measurement": "total number of cells after extended culture (in words)", "setting": "[2]; [5]", "result": "increased"}]}
{"molecule": "N.N.[Cl][Pt][Cl]", "note": "[Cisplatin, cisplatin]", "values": [{"measurement": "The number of cells CHGA+, average", "setting": "[3]; [6]", "result": "23 ×10^4 cells/mL"}, {"measurement": "The number of cells PDX+/CHGA−, average", "setting": "[3]; [6]", "result": "97 ×10^4 cells/mL"}, {"measurement": "The number of cells PDX−/CHGA−, average", "setting": "[3]; [6]", "result": "5.4 ×10^4 cells/mL"}, {"measurement": "Total number of cells, average", "setting": "[3]; [6]", "result": "125 ×10^4 cells/mL"}, {"measurement": "The number of cells CHGA+", "setting": "[3]; [7]", "result": "24 ×10^4 cells/mL and 21 ×10^4 cells/mL"}, {"measurement": "The number of cells PDX+/CHGA−", "setting": "[3]; [7]", "result": "97 ×10^4 cells/mL and 84 ×10^4 cells/mL and 110 ×10^4 cells/mL"}, {"measurement": "The number of cells PDX−/CHGA−", "setting": "[3]; [7]", "result": "4.5 ×10^4 cells/mL and 4.4 ×10^4 cells/mL and 7.2 ×10^4 cells/mL"}, {"measurement": "Total number of cells", "setting": "[3]; [7]", "result": "125 ×10^4 cells/mL and 109 ×10^4 cells/mL and 141 ×10^4 cells/mL"}, {"measurement": "proportion of PDX1-negative and CHGA-negative (PDX1−/CHGA−) cells", "setting": "[3]; [8]", "result": "drastically decreased"}, {"measurement": "proportion of PDX1-positive and CHGA-negative (PDX1+/CHGA−) cells", "setting": "[3]; [8]", "result": "no large change"}, {"measurement": "total number of cells after extended culture (in words)", "setting": "[3]; extended culture involving EGF", "result": "increased"}, {"measurement": "The number of cells CHGA+", "setting": "[3]; [9]", "result": "88 ×10^4 cells/mL"}, {"measurement": "The number of cells PDX+/CHGA−", "setting": "[3]; [9]", "result": "2.7 ×10^4 cells/mL"}, {"measurement": "The number of cells PDX−/CHGA−", "setting": "[3]; [9]", "result": "0.3 ×10^4 cells/mL"}, {"measurement": "Total number of cells", "setting": "[3]; [9]", "result": "91 ×10^4 cells/mL"}, {"measurement": "number of CHGA-positive endocrine cells after extended culture (in words)", "setting": "[3]; with respect to control cell population", "result": "not changed"}]}
